Each molecule was assayed against T1, RORγt ligand-binding domain (RORγt-LBD) (Homo sapiens, UniProt P51449) (assay: Time-resolved FRET (TR-FRET) RORγt coactivator assay). Details: GST-RORγ-LBD, biotinylated RIP140 peptide, coactivator displacement.
T1 construct: 20 nM recombinantly expressed RORγ-LBD fused to GST
T1 sequence (P51449 269-508 limits assumed): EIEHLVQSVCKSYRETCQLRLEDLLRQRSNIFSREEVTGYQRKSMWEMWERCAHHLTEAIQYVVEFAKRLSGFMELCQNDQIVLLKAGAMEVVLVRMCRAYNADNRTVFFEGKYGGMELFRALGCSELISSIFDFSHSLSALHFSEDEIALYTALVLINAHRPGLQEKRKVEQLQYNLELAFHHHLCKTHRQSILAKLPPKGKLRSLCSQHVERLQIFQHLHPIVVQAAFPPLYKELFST
Assay type: biochemical
With `O=C(O)Cc1c[nH]c2ccc(NC(=O)NC(c3ccccc3)c3ccccc3N3CCCCC3)cc12` (stereo not drawn) [compound 69, 2-{5-[({phenyl[2-(piperidin-1-yl)phenyl]methyl}carbamoyl)amino]-1H-indol-3-yl}acetic acid] the IC50 was 1000 to 10000 nM.
Work on `CN(C)c1ccccc1C(NC(=O)Cc1ccc2[nH]cc(CC(=O)O)c2c1)c1ccccc1` (stereo not drawn) [compound 71, 2-{5-[({[2-(dimethylamino)phenyl](phenyl)methyl}carbamoyl)methyl]-1H-indol-3-yl}acetic acid] yielded an IC50 of 1000 to 10000 nM.
Work on `O=C(O)Cc1c[nH]c2ccc(CC(=O)NC(c3ccccc3)c3ccccc3N3CCCC3)cc12` (stereo not drawn) [compound 73, 2-{5-[({phenyl[2-(pyrrolidin-1-yl)phenyl]methyl}carbamoyl)methyl]-1H-indol-3-yl}acetic acid] yielded an IC50 of 1000 to 10000 nM.
`O=C(O)Cc1c[nH]c2ccc(CC(=O)NC(c3ccccc3)c3ccccc3N3CCCCCC3)cc12` (stereo not drawn) [compound 75, 2-{5-[({[2-(azepan-1-yl)phenyl](phenyl)methyl}carbamoyl)methyl]-1H-indol-3-yl}acetic acid] gave an IC50 of 1000 to 10000 nM.
`O=C(O)CCc1c[nH]c2ccc(CC(=O)NC(c3ccccc3)c3ccccc3N3CCCC3)cc12` (stereo not drawn) [compound 79, 3-{5-[({phenyl[2-(pyrrolidin-1-yl)phenyl]methyl}carbamoyl)methyl]-1H-indol-3-yl}propanoic acid] was tested, and the IC50 was < 1000 nM.
`Cc1ccc(C(NC(=O)Cc2ccc3[nH]cc(CCC(=O)O)c3c2)c2ccccc2)c(N2CCOCC2)c1` (stereo not drawn) [compound 81, 3-{5-[({[4-methyl-2-(morpholin-4-yl)phenyl](phenyl)methyl}carbamoyl)methyl]-1H-indol-3-yl}propanoic acid] was tested, and the IC50 was < 1000 nM.
`COc1ccc(C(NC(=O)Cc2ccc3[nH]cc(CCC(=O)O)c3c2)c2ccccc2)c(C)c1` (stereo not drawn) [compound 83, 3-[5-({[(4-methoxy-2-methylphenyl)(phenyl)methyl]carbamoyl}methyl)-1H-indol-3-yl]propanoic acid] was tested, and the IC50 was < 1000 nM.
`O=C(O)Cc1c[nH]c2ccc(CC(=O)NC(c3ccccc3)c3ccc(Cl)cc3N3CCCC3)cc12` (stereo not drawn) [compound 85, 2-{5-[({[4-chloro-2-(pyrrolidin-1-yl)phenyl](phenyl)methyl}carbamoyl)methyl]-1H-indol-3-yl}acetic acid] was tested, and the IC50 was < 1000 nM.
With `O=C(O)Cc1c[nH]c2ccc(CC(=O)NC(c3ccccc3)c3ccc(C(F)(F)F)cc3N3CCCC3)cc12` (stereo not drawn) [compound 89, 2-{5-[({phenyl[2-(pyrrolidin-1-yl)-4-(trifluoromethyl)phenyl]methyl}carbamoyl)methyl]-1H-indol-3-yl}acetic acid] the IC50 was < 1000 nM.
For `O=C(O)CCc1c[nH]c2ccc(CC(=O)NC(c3ccccc3)c3ccc(F)cc3N3CCCC3)cc12` (stereo not drawn) [compound 93, 3-{5-[({[4-fluoro-2-(pyrrolidin-1-yl)phenyl](phenyl)methyl}carbamoyl)methyl]-1H-indol-3-yl}propanoic acid], the IC50 was < 1000 nM.
Molecule `O=C(O)CCc1c[nH]c2ncc(NC(=O)NC(c3ccccc3)c3ccccc3N3CCCCC3)cc12` (stereo not drawn) [compound 95, 3-{5-[({phenyl[2-(piperidin-1-yl)phenyl]methyl}carbamoyl)amino]-1H-pyrrolo[2,3-b]pyridin-3-yl}propanoic acid] has an IC50 of 1000 to 10000 nM.
For `COc1cc(C)ccc1C(NC(=O)Cc1ccc2[nH]cc(CCC(=O)O)c2c1)c1ccccc1` (stereo not drawn) [compound 99, 3-[5-({[(2-methoxy-4-methylphenyl)(phenyl)methyl]carbamoyl}methyl)-1H-indol-3-yl]propanoic acid], the IC50 was < 1000 nM.
For `Cc1ccc(C(NC(=O)Cc2ccc3[nH]cc(CCC(=O)O)c3c2)c2ccc(C)s2)c(C)c1` (stereo not drawn) [compound 101, 3-[5-({[(2,4-dimethylphenyl)(5-methylthiophen-2-yl)methyl]carbamoyl}methyl)-1H-indol-3-yl]propanoic acid], the IC50 was < 1000 nM.
Work on `Cc1ccc(C(NC(=O)Cc2ccc3[nH]cc(CCC(=O)O)c3c2)c2ccccc2)c(N2CCN(C)CC2)c1` (stereo not drawn) [compound 103, 3-{5-[({[4-methyl-2-(4-methylpiperazin-1-yl)phenyl](phenyl)methyl}carbamoyl)methyl]-1H-indol-3-yl}propanoic acid] yielded an IC50 of 1000 to 10000 nM.
For `O=C(O)CCc1c[nH]c2ccc(CC(=O)NC(c3ccccc3)c3ccccc3-n3cccc3)cc12` (stereo not drawn) [compound 107, 3-{5-[({phenyl[2-(1H-pyrrol-1-yl)phenyl]methyl}carbamoyl)methyl]-1H-indol-3-yl}propanoic acid], the IC50 was < 1000 nM.
`CC(C)NC(=O)CCc1c[nH]c2ccc(CC(=O)NC(c3ccccc3)c3ccccc3N3CCCCC3)cc12` (stereo not drawn) [compound 118, 3-{5-[({phenyl[2-(piperidin-1-yl)phenyl]methyl}carbamoyl)methyl]-1H-indol-3-yl}-N-(propan-2-yl)propanamide] was tested, and the IC50 was < 1000 nM.
Molecule `CN(C)Cc1ccccc1C(NC(=O)Cc1ccc2[nH]cc(CCC(=O)OC(C)(C)C)c2c1)c1ccccc1` (stereo not drawn) [compound 121, tert-butyl 3-(5-{[({2-[(dimethylamino)methyl]phenyl}(phenyl)methyl)carbamoyl]methyl}-1H-indol-3-yl)propanoate] has an IC50 of 1000 to 10000 nM.
With `O=C(O)CCc1c[nH]c2ccc(CC(=O)NC(c3ccccc3)c3ccccc3N3CCCC(O)C3)cc12` (stereo not drawn) [compound 124, 3-{5-[({[2-(3-hydroxypiperidin-1-yl)phenyl](phenyl)methyl}carbamoyl)methyl]-1H-indol-3-yl}propanoic acid] the IC50 was 1000 to 10000 nM.
`O=C(O)CCc1c[nH]c2ccc(CC(=O)NC(c3ccccc3)c3ccccc3N3CC=CCC3)cc12` (stereo not drawn) [compound 128, 3-{5-[({phenyl[2-(1,2,3,6-tetrahydropyridin-1-yl)phenyl]methyl}carbamoyl)methyl]-1H-indol-3-yl}propanoic acid] was tested, and the IC50 was < 1000 nM.
For `O=C(O)CCc1c[nH]c2ccc(CC(=O)NC3(c4ccccc4N4CCCC4)CCCC3)cc12` [compound 130, 3-{5-[({1-[2-(pyrrolidin-1-yl)phenyl]cyclopentyl}carbamoyl)methyl]-1H-indol-3-yl}propanoic acid], the IC50 was < 1000 nM.
With `Cc1ccc(C(NC(=O)Cc2ccc3[nH]cc(CCC(=O)O)c3c2)c2ncccn2)c(N2CCCCC2)c1` (stereo not drawn) [compound 132, 3-{5-[({[4-methyl-2-(piperidin-1-yl)phenyl](pyrimidin-2-yl)methyl}carbamoyl)methyl]-1H-indol-3-yl}propanoic acid] the IC50 was < 1000 nM.
For `Cc1ccc(C(CC(C)C)NC(=O)Cc2ccc3[nH]cc(CCC(=O)O)c3c2)c(N(C)C)c1` (stereo not drawn) [compound 134, 3-{5-[({1-[2-(dimethylamino)-4-methylphenyl]-3-methylbutyl}carbamoyl)methyl]-1H-indol-3-yl}propanoic acid], the IC50 was < 1000 nM.
In the case of `Cc1cnc(C(NC(=O)Cc2ccc3[nH]cc(CCC(=O)O)c3c2)c2ccccc2N2CCCCC2)s1` (stereo not drawn) [compound 154, 3-[5-({[(5-methyl-1,3-thiazol-2-yl)[2-(piperidin-1-yl)phenyl]methyl]carbamoyl}methyl)-1H-indol-3-yl]propanoic acid], the IC50 is reported as < 1000 nM.
`Cc1ncc(C(NC(=O)Cc2ccc3[nH]cc(CCC(=O)O)c3c2)c2ccccc2N2CCCCC2)s1` (stereo not drawn) [compound 156, 3-[5-({[(2-methyl-1,3-thiazol-5-yl)[2-(piperidin-1-yl)phenyl]methyl]carbamoyl}methyl)-1H-indol-3-yl]propanoic acid] showed an IC50 of 1000 to 10000 nM.
`Cc1ccc(C(NC(=O)Cc2ccc3[nH]cc(CCC(=O)O)c3c2)C2CC2)c2ccccc12` (stereo not drawn) [compound 164, 3-[5-({[cyclopropyl(4-methylnaphthalen-1-yl)methyl]carbamoyl}methyl)-1H-indol-3-yl]propanoic acid] was tested, and the IC50 was < 1000 nM.
`O=C(O)Cc1c[nH]c2ccc(CC(=O)NC(c3ccccc3)c3cc(Cl)ccc3N3CCCCC3)cc12` (stereo not drawn) [compound 166, 2-{5-[({[5-chloro-2-(piperidin-1-yl)phenyl](phenyl)methyl}carbamoyl)methyl]-1H-indol-3-yl}acetic acid] showed an IC50 of 1000 to 10000 nM.
`O=C(O)CCc1c[nH]c2ccc(CC(=O)NC(c3ccccc3)c3cccc4cc[nH]c34)cc12` (stereo not drawn) [compound 168, 3-[5-({[1H-indol-7-yl(phenyl)methyl]carbamoyl}methyl)-1H-indol-3-yl]propanoic acid] gave an IC50 of 1000 to 10000 nM.
For `Cn1ccc2cccc(C(NC(=O)Cc3ccc4[nH]cc(CCC(=O)O)c4c3)c3ccccc3)c21` (stereo not drawn) [compound 170, 3-[5-({[(1-methyl-1H-indol-7-yl)(phenyl)methyl]carbamoyl}methyl)-1H-indol-3-yl]propanoic acid], the IC50 was < 1000 nM.
With `Cc1cccc(CC(NC(=O)Cc2ccc3[nH]cc(CCC(=O)O)c3c2)c2ccccc2N2CCCCC2)c1` (stereo not drawn) [compound 176, 3-[5-({[2-(3-methylphenyl)-1-[2-(piperidin-1-yl)phenyl]ethyl]carbamoyl}methyl)-1H-indol-3-yl]propanoic acid] the IC50 was 1000 to 10000 nM.
For `CC(C)CC(NC(=O)Nc1cnc2[nH]cc(CCC(=O)O)c2c1)c1ccccc1N1CCCCC1` (stereo not drawn) [compound 178, 3-{5-[({3-methyl-1-[2-(piperidin-1-yl)phenyl]butyl}carbamoyl)amino]-1H-pyrrolo[2,3-b]pyridin-3-yl}propanoic acid], the IC50 was 10000 to 30000 nM.
For `O=C(O)CCc1c[nH]c2ccc(CC(=O)NC(c3ccccc3)c3ccccc3N3CCC(F)(F)CC3)cc12` (stereo not drawn) [compound 180, 3-{5-[({[2-(4,4-difluoropiperidin-1-yl)phenyl](phenyl)methyl}carbamoyl)methyl]-1H-indol-3-yl}propanoic acid], the IC50 was 1000 to 10000 nM.
With `CC(C)CC(NC(=O)Cc1ccc2[nH]cc(CCC(=O)O)c2c1)c1ccc(Br)cc1N1CCCC1` (stereo not drawn) [compound 182, 3-{5-[({1-[4-bromo-2-(pyrrolidin-1-yl)phenyl]-3-methylbutyl}carbamoyl)methyl]-1H-indol-3-yl}propanoic acid] the IC50 was < 1000 nM.
For `Cc1ccc(C(NC(=O)Cc2ccc3[nH]cc(CCC(=O)O)c3c2)c2ccccc2)c(N)c1` (stereo not drawn) [compound 184, 3-[5-({[(2-amino-4-methylphenyl)(phenyl)methyl]carbamoyl}methyl)-1H-indol-3-yl]propanoic acid], the IC50 was 1000 to 10000 nM.
